Reference: patent US20120277299A1, “METHOD FOR MODULATING ION TRANSPORTER” (SUCAMPO AG, priority 2011, published 2012)

Tested on: Na^+/K^+/Cl^− cotransporter
Assay: 86Rb uptake assay for Na+/K+/Cl− cotransporter activity in A7r5 cells
Format: cell-based, Rat
Conditions: for effect on 86Rb uptake (activation of Na+/K+/Cl− cotransporter): 0.01 μM to 10 μM; for % control activity: 86Rb uptake, 10 min at 37° C.
Protocol: The effect of Compound 1 ((−)-7-[(2R,4aR,5R,7aR)-2-(1,1-difluoropentyl)-2-hydroxy-6-oxooctahydrocyclopenta[b]pyran-5-yl]heptanoic acid) and Compound 2 ((−)-7-{(2R,4aR,5R,7aR)-2-[(3S)-1,1-difluoro-3-methylpentyl]-2-hydroxy-6-oxooctahydrocyclopenta[b]pyran-5-yl}heptanoic acid) on […] cotransporter were assessed by ^86Rb uptake. Rat aorta-derived smooth muscle cells (A7r5) cells were cultured to sub-confluent on culture dishes and used for the assay. The culture medium was removed and replaced by uptake medium that contains labeled isotope (47 μM ^86Rb) and each compound.
After 10 min incubation at 37° C., uptake medium was removed and extracellular radioactivity was washed using 0.1M […] solution. The cells were harvested in 0.1M NaOH and the radioactivity incorporated by the cells was determined. Compound1 and 2 were tested at concentrations ranging from 0.01 μM to 10 μM and each determination was made in duplicate.

SMILES | effect on 86Rb uptake (activation of Na+/K+/Cl− cotransporter) | % control activity (compound 0.01 μM) [%] | % control activity (compound 0.03 μM) [%] | % control activity (compound 0.1 μM) [%] | % control activity (compound 0.3 μM) [%] | % control activity (compound 1 μM) [%] | % control activity (compound 3 μM) [%] | % control activity (compound 10 μM) [%]
CC[C@H](C)CC(F)(F)[C@@]1(O)CC[C@H]2[C@@H](CC(=O)[C@@H]2CCCCCCC(=O)O)O1 [Compound 2, (−)-7-{(2R,4aR,5R,7aR)-2-[(3S)-1,1-difluoro-3-methylpentyl]-2-hydroxy-6-oxooctahydrocyclopenta[b]pyran-5-yl}heptanoic acid] | increased ^86Rb uptake concentration-dependently | 108.1 | 143.0 | 157.4 | 171.3 | 168.5 | 213.6 | 205.1
CCCCC(F)(F)[C@@]1(O)CC[C@H]2[C@@H](CC(=O)[C@@H]2CCCCCCC(=O)O)O1 [Compound 1, (−)-7-[(2R,4aR,5R,7aR)-2-(1,1-difluoropentyl)-2-hydroxy-6-oxooctahydrocyclopenta[b]pyran-5-yl]heptanoic acid] | increased ^86Rb uptake concentration-dependently | 82.7 | 115.7 | 122.6 | 133.2 | 134.2 | 152.3 | 175.5
